Measurements from ChEMBL document CHEMBL1201862, “PubChem BioAssay data set” (2004).
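Protocol summary: plate cells (96-well), add compound at 5 concentrations, incubate 48 h, interpolate endpoints linearly. Here, GI50 denotes the concentration required for 50% inhibition of growth.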 Calls of active or inactive are those of the source. No stated cut-off is given here; in the data, active = GI50 up to about 1.1 µM and inactive = higher.

Experiments:
Experiment in all cases: NCI anticancer screen, dose series, 48 h
SR = system: SR
UACC-257 = system: UACC-257
ACHN = system: ACHN
IGROV-1 = system: IGROV-1
T47D = system: T47D
OVCAR-8 = system: OVCAR-8
UACC-62 = system: UACC-62
MCF7 = system: MCF7
TK-10 = system: TK-10
NCI-H522 = system: NCI-H522
SN12C = system: SN12C
NCI-H23 = system: NCI-H23
HOP-62 = system: HOP-62
SK-OV-3 = system: SK-OV-3
COLO 205 = system: COLO 205
OVCAR-5 = system: OVCAR-5
BT-549 = system: BT-549
OVCAR-3 = system: OVCAR-3
SNB-19 = system: SNB-19
DU-145 = system: DU-145
K562 = system: K562
SK-MEL-2 = system: SK-MEL-2
RXF 393 = system: RXF 393
A549 = system: A549
HCT-15 = system: HCT-15
LOX IMVI = system: LOX IMVI
MDA-MB-231 = system: MDA-MB-231
U-251 = system: U-251
SF-539 = system: SF-539
UO-31 = system: UO-31
MDA-N = system: MDA-N
HCC 2998 = system: HCC 2998
OVCAR-4 = system: OVCAR-4
EKVX = system: EKVX
SW-620 = system: SW-620
MDA-MB-435 = system: MDA-MB-435
M14 = system: M14
CAKI-1 = system: CAKI-1
786-0 = system: 786-0
SF-268 = system: SF-268
SF-295 = system: SF-295
NCI/ADR-RES = system: NCI/ADR-RES
Malme-3M = system: Malme-3M
SNB-75 = system: SNB-75
CCRF-CEM = system: CCRF-CEM
NCI-H226 = system: NCI-H226
MOLT-4 = system: MOLT-4
HT-29 = system: HT-29
A498 = system: A498
HL-60 = system: HL-60
HCT-116 = system: HCT-116
PC-3 = system: PC-3
SK-MEL-5 = system: SK-MEL-5
RPMI-8226 = system: RPMI-8226
KM12 = system: KM12
HOP-92 = system: HOP-92
Hs-578T = system: Hs-578T
SK-MEL-28 = system: SK-MEL-28
NCI-H460 = system: NCI-H460

For `N#Cc1c(C#N)c(-c2ccco2)n(-c2ccccc2)c1N`, the GI50 (SR) was 98.2 µM (inactive), the GI50 (UACC-257) was > 100 µM (inactive) and the GI50 (ACHN) was > 100 µM (inactive). The GI50 (IGROV-1) was > 100 µM (inactive), the GI50 (T47D) was 11.7 µM (inactive) and the GI50 (OVCAR-8) was 22.6 µM (inactive). For the same compound, the GI50 (UACC-62) was > 100 µM (inactive), the GI50 (MCF7) was 5.94 µM (inactive) and the GI50 (TK-10) was > 100 µM (inactive). The GI50 (NCI-H522) was > 100 µM (inactive), the GI50 (SN12C) was > 100 µM (inactive) and the GI50 (NCI-H23) was > 100 µM (inactive). For the same compound, the GI50 (HOP-62) was > 100 µM (inactive), the GI50 (SK-OV-3) was 94.4 µM (inactive) and the GI50 (COLO 205) was > 100 µM (inactive). The GI50 (OVCAR-5) was > 100 µM (inactive), the GI50 (BT-549) was 40.1 µM (inactive) and the GI50 (OVCAR-3) was > 100 µM (inactive). The GI50 (SNB-19) was 39.2 µM (inactive), the GI50 (DU-145) was > 100 µM (inactive) and the GI50 (K562) was > 100 µM (inactive). For the same compound, the GI50 (SK-MEL-2) was > 100 µM (inactive), the GI50 (RXF 393) was > 100 µM (inactive) and the GI50 (A549) was 59.2 µM (inactive). For the same compound, the GI50 (HCT-15) was greater than 100 µM, the GI50 (LOX IMVI) was > 100 µM (inactive) and the GI50 (MDA-MB-231) was 31.7 µM (inactive). The GI50 (U-251) was 35.5 µM (inactive), the GI50 (SF-539) was 38.5 µM (inactive) and the GI50 (UO-31) was > 100 µM (inactive). The GI50 (MDA-N) was > 100 µM (inactive), the GI50 (HCC 2998) was > 100 µM (inactive) and the GI50 (OVCAR-4) was > 100 µM (inactive). The GI50 (EKVX) was 45 µM (inactive), the GI50 (SW-620) was > 100 µM (inactive) and the GI50 (MDA-MB-435) was > 100 µM (inactive). For the same compound, the GI50 (M14) was > 100 µM (inactive), the GI50 (CAKI-1) was > 100 µM (inactive) and the GI50 (786-0) was 83.4 µM (inactive). For the same compound, the GI50 (SF-268) was 51.9 µM (inactive), the GI50 (SF-295) was > 100 µM (inactive) and the GI50 (NCI/ADR-RES) was 31.8 µM (inactive). The GI50 (Malme-3M) was > 100 µM (inactive), the GI50 (SNB-75) was 26.5 µM (inactive) and the GI50 (CCRF-CEM) was > 100 µM (inactive). For the same compound, the GI50 (NCI-H226) was 29.5 µM (inactive), the GI50 (MOLT-4) was > 100 µM (inactive) and the GI50 (HT-29) was > 100 µM (inactive). The GI50 (A498) was > 100 µM (inactive), the GI50 (HL-60) was > 100 µM (inactive) and the GI50 (HCT-116) was > 100 µM (inactive). For the same compound, the GI50 (PC-3) was > 100 µM (inactive), the GI50 (SK-MEL-5) was > 100 µM (inactive) and the GI50 (RPMI-8226) was > 100 µM (inactive). The GI50 (KM12) was > 100 µM (inactive) and the GI50 (HOP-92) was 49.8 µM (inactive).
For `CCN(CC)C(=S)SS(=O)(=O)c1ccc(F)cc1`, the GI50 (SR) was 0.348 µM (active), the GI50 (UACC-257) was 28.4 µM (inactive) and the GI50 (Hs-578T) was 63 µM (inactive). For the same compound, the GI50 (ACHN) was 43.1 µM (inactive), the GI50 (T47D) was 85.1 µM (inactive) and the GI50 (OVCAR-8) was 32.1 µM (inactive). For the same compound, the GI50 (UACC-62) was 19.9 µM (inactive), the GI50 (TK-10) was > 100 µM (inactive) and the GI50 (NCI-H522) was 0.0552 µM (active). The GI50 (SN12C) was 34.5 µM (inactive), the GI50 (NCI-H23) was 76.4 µM (inactive) and the GI50 (HOP-62) was 40.6 µM (inactive). For the same compound, the GI50 (SK-OV-3) was > 100 µM (inactive), the GI50 (COLO 205) was > 100 µM (inactive) and the GI50 (OVCAR-5) was > 100 µM (inactive). The GI50 (BT-549) was 46.1 µM (inactive), the GI50 (OVCAR-3) was > 100 µM (inactive) and the GI50 (SNB-19) was > 100 µM (inactive). The GI50 (DU-145) was 37.9 µM (inactive), the GI50 (K562) was 23.2 µM (inactive) and the GI50 (SK-MEL-2) was 56.4 µM (inactive). The GI50 (RXF 393) was 18.8 µM (inactive), the GI50 (HCT-15) was 66.7 µM and the GI50 (LOX IMVI) was 19.6 µM (inactive). For the same compound, the GI50 (MDA-MB-231) was 32.4 µM (inactive), the GI50 (U-251) was 18.8 µM (inactive) and the GI50 (SF-539) was 23 µM (inactive). For the same compound, the GI50 (UO-31) was 27.7 µM (inactive), the GI50 (MDA-N) was 63.2 µM (inactive) and the GI50 (SK-MEL-28) was 14 µM (inactive). The GI50 (HCC 2998) was > 100 µM (inactive), the GI50 (OVCAR-4) was > 100 µM (inactive) and the GI50 (EKVX) was > 100 µM (inactive). For the same compound, the GI50 (SW-620) was 17.9 µM (inactive), the GI50 (MDA-MB-435) was 38.9 µM (inactive) and the GI50 (M14) was 29.1 µM (inactive). For the same compound, the GI50 (CAKI-1) was 41 µM (inactive), the GI50 (786-0) was 73.3 µM (inactive) and the GI50 (SF-268) was > 100 µM (inactive). For the same compound, the GI50 (SF-295) was 75.3 µM (inactive), the GI50 (NCI/ADR-RES) was 50.7 µM (inactive) and the GI50 (Malme-3M) was 19.9 µM (inactive). For the same compound, the GI50 (NCI-H460) was 42.9 µM (inactive), the GI50 (NCI-H226) was > 100 µM (inactive) and the GI50 (HT-29) was 22 µM (inactive). The GI50 (A498) was > 100 µM (inactive), the GI50 (HCT-116) was 25.3 µM (inactive) and the GI50 (SK-MEL-5) was 7.41 µM (inactive). The GI50 (RPMI-8226) was 17.7 µM (inactive), the GI50 (KM12) was 17.8 µM (inactive) and the GI50 (HOP-92) was 31.2 µM (inactive).
